Results: PMC7038139, “Novel Peptide CM 7 Targeted c-Met with Antitumor Activity” (Molecules, 2020)
“Also recorded” adds a separate entry of the source.

Legend:
human c-Met protein = test: Affinity to c-Met protein (as stated in abstract and discussion); type: binding; conditions: in words only; Kd not given
[1] = test system: c-Met and its downstream signaling molecules in MKN-45 xenografts; test: Western blot of c-Met signaling in xenograft tumors; type: in vivo, Human; conditions: n = 3
Procedure: (§1) Western blot analysis was performed using an extraction buffer as described. MKN-45, MKN-28 and U87 cells were cultured in serum-free medium overnight, then treated with the indicated dose of peptide CM 7 for 24 h at 37 °C after stimulated without or with HGF for 15 min. Next, total cell lysates were separated by 12% SDS-polyacrylamide gel (SDS-PAGE) and transferred to polyvinylidene difluoride (PVDF) membranes. The PVDF membranes were probed with following primary antibodies: anti-phospho-Met (Tyr1234/1235, (Cell Signaling Technology, Beverly, MA, USA), anti-Met (Affinity, USA), anti-phospho-AKT (Ser473, (Affinity, USA)), anti-AKT (Affinity, USA), anti-phospho-Erk1/2 (Thr202/Tyr204, (Affinity, USA)), anti-Erk1/2 (Affinity, USA), anti-E-cadherin (WanleiBio, Shengyang, China), and anti-GAPDH (Multi Sciences, Hangzhou, China). Then, horseradish-peroxidase-conjugated anti-rabbit IgG was used as a second antibody. The immunoreactive proteins were exposed using an enhanced chemiluminescence detection reagent (WanleiBio, Shengyang, China). After sacrificing the mice and isolating the tumor tissue, Western blot was performed as previously described.

MKN-45 cells [2] = test: Cell proliferation assay, MKN-45; type: cell-based, Human; conditions: CM 7, various concentrations; 4 days; serum-free medium; cell count; means of six determinations
Procedure: (§2) Human gastric cancer cell line MKN-45 cells were from the Chinese Academy of Medical Sciences, Beijing, China. Human gastric cancer cell line MKN-28 cells, the human glioma cell line U87 cells, and MDCK cells were obtained from the American Type Culture Collection (ATCC). The MKN-45 and MKN-28 cells were grown under a humidified atmosphere of 5% CO2 at 37 °C in RPMI 1640 medium (Biological Industries, Israel), supplemented with 10% fetal bovine serum (FBS, Biological Industries, Israel), 2 mmol/L L-glutamine (Gibco, Life Technologies, Grand Island, NY, USA), 100 U/mL penicillin, and 100 μg/mL streptomycin (Invitrogen, Carlsbad, CA, USA). MDCK and U87 cells were cultured under a humidified atmosphere of 5% CO2 at 37 °C in Dulbecco’s modified Eagle’s medium (DMEM) (Gibco, Life Technologies, Grand Island, NY, USA), supplemented with 10% FBS, 2 mmol/L L-glutamine (Gibco, Life Technologies, Grand Island, NY, USA), 100 U/mL penicillin, and 100 μg/mL streptomycin (Invitrogen, Carlsbad, CA, USA).
(§3) As described in the literature, MKN-45, MKN-28, and U87 cells were seeded into 48-well culture plates (6500 cells/well) and cultured overnight. […] After 4 days, the cells were trypsinized and counted by a cell counter. […]

[3] = test system: c-Met and its downstream signaling molecules in U87 cells; test: Western blot of c-Met signaling, U87 (HGF-induced); type: cell-based, human; conditions: 24 h
Procedure: as §1

MKN-45 cells [4] = test: Transwell invasion assay; type: cell-based, Human; conditions: Matrigel-coated Transwell, 8 μm pores; 48 h; n = 3; dose-dependent
Procedure: For the invasion assay, a chamber was placed into a 24-well culture plate with 600 μL RPMI 1640 medium containing 10% FBS. MKN-45 cells were resuspended in serum-free medium and cultured on the upper compartment of the Transwell chamber (1.0 × 10^5 cells/well; pore size, 8 μm; Merck Millipore, Germany) coated with Matrigel. CM 7 and Crizotinib were added to the top side of the membrane at the indicated concentrations. After 48 h, the noninvaded cells were removed, and the invaded cells were fixed with ethanol and stained with crystal violet solution (0.1%) for 15 min at room temperature. The experiment was performed in triplicate, and images were obtained using an Olympus IX53 microscope (Olympus, Japan).

[5] = Body weight / tolerability in tumor-bearing mice; type: in vivo, Balb/c nude mice; conditions: each peptide group (5, 10, 20 mg/kg s.c. twice a day, 28 days)
Procedure: Four-to-five-week-old female Balb/c nude mice, housed in specific pathogen-free conditions, were used to evaluate antitumor activity in vivo. All animal studies were performed according to the institutional ethical guidelines for animal care.
MKN-45 cells at a density of 5 × 10^6 in 200 μL were injected subcutaneously into the flank of the mice. CM 7 (5, 10, or 20 mg/kg) was injected subcutaneously for each group twice a day for four weeks. As a positive control, Crizotinib (50 mg/kg) was given to tumor-bearing mice by gavage once a day for a total of 28 days. The tumor volume was measured with calipers in two dimensions: tumor volume = 1/2 × a × b^2, where a is the length of the tumor, and b is the width of the tumor. All of the mice were sacrificed on day 42, and the tumor tissue was isolated and weighed.
Figure S1: The chemical structure, molecular mass, and purity of peptide FITC-CM 7. […] (C) The purity of peptide FITC-CM 7 was determined by high-performance liquid chromatography (HPLC) to be 97.3%. […] (C) The purity of peptide FITC-CM 7 was determined by HPLC to be 96.7%. Figure S3: The mean body weight of tumor-bearing mice treated daily for four weeks with vehicle (0.2% DMSO) or Crizotinib (50 mg/kg) by gavage, and the tested peptide CM 7 or vehicle (PBS) that was subcutaneously injected twice a day for four weeks was measured every other day during the study. […]

[6] = test system: c-Met and its downstream signaling molecules in MKN-28 cells; test: Western blot of c-Met signaling, MKN-28; type: cell-based, Human
Procedure: as §1

MKN-28 cells = test: Cell proliferation assay, MKN-28; type: cell-based, Human; conditions: CM 7, various concentrations; 4 days; serum-free medium; cell count; means of six determinations
Procedure: as §2, §3

U87 cells = test: Cell proliferation assay, U87 (HGF-stimulated); type: cell-based, human; conditions: CM 7, various concentrations; 20 ng/mL HGF; 4 days; serum-free medium; cell count; means of six determinations
Procedure: as §2, §3

[7] = test system: c-Met and its downstream signaling molecules in MKN-45 cells; test: Western blot of c-Met signaling, MKN-45; type: cell-based, Human; conditions: 24 h
Procedure: as §1

## DQIIANN [CM 7, Novel peptide DQIIANN targeting the tyrosine kinase receptor c-Met]
Human c-Met protein
  Affinity to c-Met: specific binding to c-Met with high affinity
[1]
  Intratumoral expression of E-cadherin: significantly increased
  Intratumoral phosphorylation of c-Met, Akt or Erk: markedly inhibited
MKN-45 cells [2]
  Inhibition of cell proliferation: moderate regulation; also recorded: inhibit the proliferation of MKN-45 or U87 cells to a certain extent with considerable dose dependence
[3]
  Expression of E-cadherin: increase the expression of E-cadherin
[3]; HGF 15 min, dose-dependent
  Phosphorylation of c-Met, Akt and Erk: effectively inhibit
MKN-45 cells [4]
  Inhibition of cell invasion: moderate regulation; also recorded: significantly inhibit cell invasion
[5]
  Weight loss of mice: no significant weight loss
[5]; from body weight
  Tolerability / toxicity: well tolerated and slightly or nontoxic
[6]
  Expression of E-cadherin: no effect
  Phosphorylation of c-Met, Akt and Erk: not MKN-28 cells; also recorded: no effect
MKN-28 cells
  Inhibition of cell proliferation: no effect
U87 cells
  Inhibition of cell proliferation: inhibit the proliferation of MKN-45 or U87 cells to a certain extent with considerable dose dependence
[7]
  Expression of E-cadherin: increase the expression of E-cadherin
[7]; dose-dependent
  Phosphorylation of c-Met, Akt and Erk: effectively inhibit
